These results are taken from PMC12723449, “From Pharmacophore to Warhead: NAD^+‐Targeting Triazoles as Mechanism‐Based Sirtuin Inhibitors” (Angewandte Chemie (International Ed. in English), 2025).

Like-named read-outs stand apart in the source and are kept apart here.

The experiment has as its target T1, NanoLuc–SIRT2 fusion protein in HEK293T cells (Homo sapiens, UniProt Q8IXJ6).
T1 construct: transfected HEK293T cells expressing the NanoLuc-tagged SIRT250-356 fusion protein were used instead of transient; expressed in transfected cells; host or cells: HEK293T (stably transfected)
T1 sequence (Q8IXJ6 50-356 limits assumed): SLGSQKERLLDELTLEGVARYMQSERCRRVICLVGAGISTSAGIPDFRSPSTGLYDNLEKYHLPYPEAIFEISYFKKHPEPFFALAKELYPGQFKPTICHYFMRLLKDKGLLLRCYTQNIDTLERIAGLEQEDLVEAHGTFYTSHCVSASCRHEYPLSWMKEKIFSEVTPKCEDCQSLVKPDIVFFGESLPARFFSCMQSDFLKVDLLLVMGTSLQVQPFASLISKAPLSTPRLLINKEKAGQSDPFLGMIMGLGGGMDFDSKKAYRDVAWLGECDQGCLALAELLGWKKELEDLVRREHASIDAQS
Kind of experiment: NanoBRET cellular target engagement assay. The class given is cell-based. The settings on record: for Ki: read-out: NanoBRET K i (Cheng–Prusoff). How it is done: The NanoBRET target engagement assay was performed as previously described[2] with the modification that stably transfected HEK293T cells expressing the NanoLuc-tagged SIRT250-356 fusion protein were used instead of transient transfection. Briefly, HEK293T-NLuc- SIRT250-356 cells were cultured under standard conditions (37 °C, 5% CO2) in DMEM supplemented with 10% fetal bovine serum, 2 mM glutamine, and 300 µg/mL hygromycin as a selection marker. For the assay, cells were trypsinized, resuspended in Opti-MEM® reduced serum medium, and adjusted to a concentration of 2 × 10^5 cells per mL. […]
µM was used. Serially diluted inhibitor and tracer were added to the cell suspension, and 100 μL were seeded into 96-well white, sterile, nonbinding surface plates. To evaluate the cellular permeability of LTDi-1 (6), the non-ionic detergent digitonin (50 µg/ml) was added. Plates were incubated at 37 °C with 5% CO2 for 2 h. For BRET measurements, NanoBRET NanoGlo Substrate (Promega cat. #N1571) was added to the wells according to the […]
All measurements were performed using the 2102 EnVisionTM Multilabel Reader (PerkinElmer), equipped with a 460 nm filter (donor) and a 615 nm filter (acceptor). The BRET ratio was calculated as the ratio of acceptor to donor signal, and data were normalized to vehicle-treated controls. Apparent intracellular binding affinities (EC50 values) were determined by fitting dose-response curves using nonlinear regression analysis in GraphPad Prism. […]

Where [1] appears, read: 2 µM tracer, co-treatment with digitonin.

In general, EC50 refers to the concentration at which the effect is half-maximal. In the case of `COCCn1cc(COc2cccc(Cc3cnc(NC(=O)CSc4nc(C)cc(C)n4)s3)c2)nn1` [Compound 1, reference compound], where the note is “without digitonin”, the EC50 was found to be 2700 ± 100 nM.
As to `CCCCCCCCCCCCc1cn(CCCC[C@H](NC(=O)[C@H](CCCCN)NC(=O)[C@@H]2CCCN2C(=O)[C@H](CC(C)C)NC(=O)[C@H](C)NC(=O)[C@H](CCC(=O)O)NC(C)=O)C(=O)N[C@H](C(=O)NCC(=O)NCC(N)=O)[C@@H](C)O)nn1` [Compound 6], under setting [1], the EC50 is 160 ± 20 nM and the Ki amounted to 18 ± 2 nM. Further, where the note is “2 µM tracer, without digitonin”, the EC50 turned out to be 340 ± 90 nM and the Ki came to 38 ± 10 nM.
